Source: ChEMBL document CHEMBL5725527, “Heterocyclic compounds and methods of their use” (2017)

Target: T1, Type-2 angiotensin II receptor (Homo sapiens, UniProt P50052)
T1 sequence (P50052 whole entry): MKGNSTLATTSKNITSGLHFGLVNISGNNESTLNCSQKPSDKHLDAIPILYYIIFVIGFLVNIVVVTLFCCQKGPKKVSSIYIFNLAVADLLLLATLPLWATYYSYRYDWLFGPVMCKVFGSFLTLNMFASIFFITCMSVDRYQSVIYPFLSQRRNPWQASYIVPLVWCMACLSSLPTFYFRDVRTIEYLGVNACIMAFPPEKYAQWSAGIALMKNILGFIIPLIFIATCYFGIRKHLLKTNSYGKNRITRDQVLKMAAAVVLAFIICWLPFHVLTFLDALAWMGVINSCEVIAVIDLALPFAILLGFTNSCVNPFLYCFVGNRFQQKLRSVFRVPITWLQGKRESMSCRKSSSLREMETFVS
Assay: AT2 Receptor Binding Assay: 120 μL membrane (5 mg protein/well) was incubated with 15 μL of [125I]-CGP42112A and 15 μL of compound at RT for 1.5 hrs. The binding reaction was stopped by rapid filtration through Unifilter GF/C plates (presoaked in 0.3% (v:v) BSA).Plate was washed three times with ice cold wash buffer.The filtration plates were dried at 37° C. overnight.50 μL of scintillation cocktail was added to each well.Radioactivity was determined using MicroBetaTriluxmicroplate scintillation counter.

**Q.** With COc1ccc2c(c1OCC#Cc1ccc(F)cc1)C[C@@H](C(=O)O)N(C(=O)C(c1ccccc1)c1ccccc1)C2 as the molecule, how does the IC50 read?
**A.** 133 nM

**Q.** COc1ccc2c(c1OCC#Cc1ccccc1)C[C@@H](C(=O)O)N(C(=O)C(c1ccccc1)c1ccccc1)C2 was tested. Which IC50 did it give?
**A.** 96.2 nM

**Q.** With COc1ccc2c(c1OCC#Cc1ccccc1)C[C@@H](C(=O)NS(=O)(=O)N(C)C)N(C(=O)C(c1ccccc1)c1ccccc1)C2 as the molecule, how does the IC50 read?
**A.** 79.5 nM

**Q.** With COc1ccc2c(c1OCc1ccccc1)C[C@@H](C(=O)NS(=O)(=O)N(C)C)N(C(=O)C(c1ccccc1)c1ccccc1)C2 as the molecule, how does the IC50 read?
**A.** 10.9 nM

**Q.** For O=C(O)[C@@H]1Cc2c(ccc(O)c2OCc2ccccc2)CN1C(=O)C(c1ccccc1)c1ccccc1, which IC50 is on record?
**A.** 33.5 nM

**Q.** COc1ccc2c(c1OCC#Cc1ccc(F)cc1)C[C@@H](C(=O)NS(=O)(=O)N(C)C)N(C(=O)C(c1ccccc1)c1ccccc1)C2 was tested. Which IC50 did it give?
**A.** 206 nM
